Results on one molecule are retold here after US7041869B2, “Transgenic luciferase mouse” (Sloan-Kettering Institute for Cancer Research, priority 2002, dated 2006).

“Also recorded” adds a separate entry of the source.

The test system of test [1] is PDGF signaling in glial cell culture. The conditions noted are these: previously demonstrated; cited from earlier work.
Another test deals with PDGF-driven gliomas. The test can be described thus: Elux bioluminescence imaging of PDGF-induced gliomas during treatment. It counts as in vivo, mice.

Procedure for PDGF-driven gliomas: As an illustration of the use of Elux in somatic cell gene transfer models, the inventors have generated gliomas in mice harboring the Elux transgene. The Elux transgenic line was crossed with the Ntv-a transgenic mouse line. These doubly transgenic mice were then infected at birth with RCAS-PDGF. The mice were injected intracranially with one microliter containing 10^4 DF-1 cells, a chicken fibroblast cell line that are infected with and producing the RCAS-PDGF virus. This vector encodes the PDGF B coding region downstream of the env gene and expressed from the LTR on a message that splices out the viral genes. The injection passed through the striatum, just anterior to the ventricle, until the tip of the needle just touches the skull base. The producer cells survived for only a few days within the parenchyma of the mouse brain and during this time they produced virus and infected adjacent cells expressing the receptor for RCAS, tv-a. The mice were then observed for the development of signs of intracranial pathology including weight loss, lethargy, and macrocephaly. These mice were analyzed for expression of luciferase by i.v. injection with luciferin and imaging for bioluminescence with a CCD camera as discussed in detail below.
Animals were weighed prior to the acquisition session for proper dosage calculations. […] The solution was sterilized by filtration through 0.22 μm syringe filter. Individual dosages were drawn into sterile insulin syringes for each animal based on the body weight. Prior to the injection, individual syringes were kept in dark.
Oxygen flow was turned on and set for 1 l/min flow. […] For the induction of anesthesia, the animal was placed into the induction chamber and general activity and respiration rate were monitored. […]
Bioluminescent acquisition was performed according to the IVIS™ Imaging System (Xenogen). […] It was selected empirically, based on prior in vitro characterization of luminescence of transfected cells and the intensity of luminescence signal obtained from the current study. […]

Consider `Clc1ccc(Nc2nnc(Cc3ccncc3)c3ccccc23)cc1` [PTK787], for which, in test [1], the “effect on PDGF signaling in glial cell culture” value is “capable of reversing the effects of PDGF signaling”. In the test with PDGF-driven gliomas (Ntv-a/Elux bitransgenic mice with RCAS-PDGF gliomas, 25 mg/kg i.p. daily, in 24–36 hours), the “loss in light emission (bioluminescence)” value is given as 50%. The “relative falloff of light production across tumors of various light outputs” value in the test on PDGF-driven gliomas (four consecutive mice with PDGF-induced gliomas, bioluminescence quantified daily during treatment) is “essentially parallel responses of decreases in light emission over time; also recorded: proportionally similar”.
